In paper PMC11079024, “Identification of a family of species-selective complex I inhibitors as potential anthelmintics” (Nature Communications, 2024):
Several values for one entry are separate records, joined by “and”; a condition that tells them apart may be missing. Equal entries are not always repeated. Where two headings read alike, the source gives them in different places.

Experiments:
[1] = target: C. briggsae complex I (Caenorhabditis briggsae, UniProt A8X476+A8XFG2+Q8HEC4); assay: In vitro complex I activity assay, C. briggsae mitochondria; assay type: biochemical
Description: Mitochondria were isolated from the following free-living nematode strains: C. elegans—N2, CB3474, ECA882, ECA917, ECA1075, ECA1080; C. briggsae—AF16; P. pacificus—PS312; and P. hermaphrodita—B178. With the exception of the P. hermaphrodita strain B178, adult worms of each strain were grown in bulk through liquid culture to obtain mitochondria in sufficient quantities. Due to poor growth in liquid media, mixed stage populations of P. hermaphrodita were washed off and collected from NGM plates seeded with OP50. The isolation of mitochondria from all free-living nematode strains followed the protocol previously outlined in Burns et al.[24]. In brief, a 1 L saturated culture of E. coli HB101 was concentrated 20-fold in 50 mL complete S-medium. ~500,000 L1 worms synchronized from an embryo preparation performed the day prior were added to the S-media/HB101 suspension and grown to adulthood over the course of 3.5 days at 20 °C with shaking at 165 rpm. Following growth, worms were collected in 10 ×15 mL conical tubes and washed 7 times in M9 buffer. Worm suspensions were then combined into a single 15 mL conical tube and diluted to a final volume of 15 mL with M9 buffer. 1 mL aliquots of worm suspension were then distributed to 15 × 1.5 mL screw-cap microcentrifuge tubes and were pelleted at 500 g for 1 min. Excess M9 was aspirated without disturbing the worm pellet. 600 μL ice-cold isolate buffer A (250 mM sucrose, 10 mM Tris (pH 7.5), 1 mM EDTA, 1 mM PMSF (freshly prepared)) and 300 μL cold glass beads were then added to each tube. Tubes were incubated on ice for 10 min, and the worms were then lysed by bead beating (6 x 30 s, with 1 min cooling intervals). Tubes containing worm lysate were centrifuged at 1,000 g for 10 min at 4 °C and the supernatant was transferred to 15 new microcentrifuge tubes on ice. The tubes were centrifuged a second time at 1,000 g for 10 min at 4 °C and the supernatant was once again transferred to 15 new microcentrifuge tubes on ice. These tubes were then centrifuged at 16,000 g for 10 min at 4 °C. The resulting mitochondrial pellet was washed twice by re-suspension in 300 μL of ice-cold isolate buffer B (250 mM sucrose, 10 mM Tris (pH 7.5), 1 mM EDTA). Following the final wash, isolation buffer was aspirated from each tube and the pellets were flash-frozen in ethanol/dry ice and stored at −80 °C until needed.
The enzymatic activities of individual ETC complexes (I-IV) were assessed spectrophotometrically in isolated mitochondria using a Varioskan LUX Multimode plate reader (ThermoFisher Scientific). Mitochondrial pellets previously isolated were thawed on ice and resuspended in ice-cold isolation buffer (250 mM sucrose, 10 mM Tris (pH 7.5), 1 mM EDTA). The BCA assay (Walker, 1994) was used to quantify the protein concentration of mitochondria suspensions; solutions were diluted to a concentration of 0.2 mg/mL for use in all assays. For the complex I assay, mitochondria pellets were freeze-thawed on ice three times to increase enzyme accessibility. […] 20 μL mitochondria suspension was then added/mixed with a pipette to initiate the reaction. Immediately following the addition of mitochondria, absorbance was measured (complex I and II: 600 nm; complex III and IV: 550 nm) in 30 s intervals over 15 min. Enzymatic activity was determined in each reaction by plotting absorbance versus time and calculating the slope of the curve during the initial linear phase of the reaction. […] Percent activity of each complex was calculated by dividing the enzyme-specific activity of each well by the enzyme-specific activity of the corresponding solvent controls.
Chemical solutions were prepared in complex I assay buffer composed of 25 mM KPi buffer (pH 7.5), 3 mg/mL bovine serum albumin (BSA), 80 μM NADH, 60 μM decylubiquinone, 160 μM DCIP, 2 μM antimycin A and 2 mM KCN.
For preliminary screens of hit compounds, compounds were screened at 100 μM; data are the average of at least three biological replicates.

[2] = test system: H. polygyrus; assay: In vivo efficacy study in H. polygyrus mouse model; set-up: species or system NMRI mice infected with H. polygyrus
Description: For in vivo testing, female 3-week old NMRI mice were purchased from Charles River, Germany. The mice were kept in individually ventilated cages (IVC) under environmentally controlled conditions (temperature: 22 °C ± 2 °C; relative humidity: 55% ± 15%; artificial lighting with a circadian cycle of 12 h of light) and had free access to water (municipal tap water supply) and rodent food. Rodents were allowed to acclimatize to the new environment for 1 week before infection. Upon 2 days of arrival, dexamethasone (0.25 mg/L) (Sigma-Aldrich, Switzerland) was added to the normal drinking water for immunosuppression to enable parasite establishment. After 1 week, mice were orally infected with 100 H. polygyrus third larval stage (L3) in 150 µL water.
Four benzimidazole derivatives were tested for in vivo efficacy. The administration of dexamethasone was stopped after 12 days post-infection and 2 days later, the selected four benzimidazole derivatives were administered by oral gavage at a single dose of 200 mg/kg to groups of each four mice. Four mice were left untreated and served as a control group. The derivatives were prepared as a Tween80 (Sigma-Aldrich, Switzerland)/ethanol (Merck, Germany) mixture dissolved in tap water (7:3:90, v/v). After 6–7 days post-dosing, the mice were euthanized with CO2 and dissected. Adult worms were removed from the intestine and counted. The worm burden reduction was calculated by comparing the number of worms found in the control animals versus the treated animals.

Chain of C. briggsae complex I (A8X476 31-482): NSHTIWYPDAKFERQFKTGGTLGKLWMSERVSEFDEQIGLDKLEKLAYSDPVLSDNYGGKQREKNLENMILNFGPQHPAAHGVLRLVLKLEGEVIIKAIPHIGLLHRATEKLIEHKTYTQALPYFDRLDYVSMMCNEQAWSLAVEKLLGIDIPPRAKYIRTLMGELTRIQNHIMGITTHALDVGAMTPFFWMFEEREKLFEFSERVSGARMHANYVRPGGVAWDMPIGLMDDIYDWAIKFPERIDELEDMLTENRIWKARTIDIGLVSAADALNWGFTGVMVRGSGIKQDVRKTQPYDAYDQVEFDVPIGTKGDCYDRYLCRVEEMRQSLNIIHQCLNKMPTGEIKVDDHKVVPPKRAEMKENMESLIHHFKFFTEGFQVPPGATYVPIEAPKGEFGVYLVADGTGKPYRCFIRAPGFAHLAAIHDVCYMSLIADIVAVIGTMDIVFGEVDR
Chain of C. briggsae complex I (A8XFG2 17-199): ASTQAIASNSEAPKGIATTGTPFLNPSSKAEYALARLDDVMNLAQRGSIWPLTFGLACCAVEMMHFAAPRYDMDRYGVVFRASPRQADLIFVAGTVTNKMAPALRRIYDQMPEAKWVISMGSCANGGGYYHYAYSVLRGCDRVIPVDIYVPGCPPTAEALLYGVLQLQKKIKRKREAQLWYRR
Chain of C. briggsae complex I (Q8HEC4 whole entry): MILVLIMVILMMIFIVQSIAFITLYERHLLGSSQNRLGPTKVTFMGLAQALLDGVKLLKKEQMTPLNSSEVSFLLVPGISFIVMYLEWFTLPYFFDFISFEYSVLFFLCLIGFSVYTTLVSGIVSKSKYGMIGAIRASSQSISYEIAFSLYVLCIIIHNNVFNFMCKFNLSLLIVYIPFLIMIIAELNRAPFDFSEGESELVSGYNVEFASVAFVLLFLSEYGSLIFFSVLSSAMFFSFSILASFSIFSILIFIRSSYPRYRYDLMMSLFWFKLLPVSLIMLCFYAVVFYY

For Cc1nc2ccccc2n1Cc1ccc(Cl)cc1 [STK697993], the remaining activity at 0.0001 µM ([1]; C. briggsae mitochondria, 0.0001 µM, Mean, read-out: in vitro complex I activity relative to solvent control) was 84.5%, the “in vitro complex I activity relative to solvent control” value ([1]; C. briggsae mitochondria, 0.0001 µM, single replicate) was 91.655% and 73.328% and the remaining activity at 0.0001 µM ([1]; C. briggsae mitochondria, 0.0001 µM, single replicate, read-out: in vitro complex I activity relative to solvent control) was 88.5%. The remaining activity at 0.0005 µM ([1]; C. briggsae mitochondria, 0.0005 µM, Mean, read-out: in vitro complex I activity relative to solvent control) was 92.6%, the “in vitro complex I activity relative to solvent control” value ([1]; C. briggsae mitochondria, 0.0005 µM, single replicate) was 92.151% and 96.046% and the remaining activity at 0.0005 µM ([1]; C. briggsae mitochondria, 0.0005 µM, single replicate, read-out: in vitro complex I activity relative to solvent control) was 89.6%. The remaining activity at 0.001 µM ([1]; C. briggsae mitochondria, 0.001 µM, Mean, read-out: in vitro complex I activity relative to solvent control) was 98.3%, the “in vitro complex I activity relative to solvent control” value ([1]; C. briggsae mitochondria, 0.001 µM, single replicate) was 98.678% and 90.340% and the remaining activity at 0.001 µM ([1]; C. briggsae mitochondria, 0.001 µM, single replicate, read-out: in vitro complex I activity relative to solvent control) was 106%. For the same compound, the remaining activity at 0.0025 µM ([1]; C. briggsae mitochondria, 0.0025 µM, Mean, read-out: in vitro complex I activity relative to solvent control) was 104%, the “in vitro complex I activity relative to solvent control” value ([1]; C. briggsae mitochondria, 0.0025 µM, single replicate) was 101.880% and 103.212% and the remaining activity at 0.0025 µM ([1]; C. briggsae mitochondria, 0.0025 µM, single replicate, read-out: in vitro complex I activity relative to solvent control) was 106%. The remaining activity at 0.005 µM ([1]; C. briggsae mitochondria, 0.005 µM, Mean, read-out: in vitro complex I activity relative to solvent control) was 99.2%, the “in vitro complex I activity relative to solvent control” value ([1]; C. briggsae mitochondria, 0.005 µM, single replicate) was 95.872% and 91.749% and the remaining activity at 0.005 µM ([1]; C. briggsae mitochondria, 0.005 µM, single replicate, read-out: in vitro complex I activity relative to solvent control) was 110%. The remaining activity at 0.013 µM ([1]; C. briggsae mitochondria, 0.013 µM, Mean, read-out: in vitro complex I activity relative to solvent control) was 91%, the “in vitro complex I activity relative to solvent control” value ([1]; C. briggsae mitochondria, 0.013 µM, single replicate) was 83.705% and 87.377% and the remaining activity at 0.013 µM ([1]; C. briggsae mitochondria, 0.013 µM, single replicate, read-out: in vitro complex I activity relative to solvent control) was 102%. The remaining activity at 0.025 µM ([1]; C. briggsae mitochondria, 0.025 µM, Mean, read-out: in vitro complex I activity relative to solvent control) was 82.5%, the “in vitro complex I activity relative to solvent control” value ([1]; C. briggsae mitochondria, 0.025 µM, single replicate) was 95.007% and 79.112% and 73.336% and the remaining activity at 0.063 µM ([1]; C. briggsae mitochondria, 0.063 µM, Mean, read-out: in vitro complex I activity relative to solvent control) was 54.5%. The “in vitro complex I activity relative to solvent control” value ([1]; C. briggsae mitochondria, 0.063 µM, single replicate) was 60.174% and 66.771% and 36.409%, the remaining activity at 0.125 µM ([1]; C. briggsae mitochondria, 0.125 µM, Mean, read-out: in vitro complex I activity relative to solvent control) was 33.3% and the “in vitro complex I activity relative to solvent control” value ([1]; C. briggsae mitochondria, 0.125 µM, single replicate) was 36.143% and 47.895% and 15.798%. For the same compound, the remaining activity at 0.313 µM ([1]; C. briggsae mitochondria, 0.313 µM, Mean, read-out: in vitro complex I activity relative to solvent control) was 12.2%, the “in vitro complex I activity relative to solvent control” value ([1]; C. briggsae mitochondria, 0.313 µM, single replicate) was 16.180% and 20.382% and 0.000% and the remaining activity at 0.625 µM ([1]; C. briggsae mitochondria, 0.625 µM, Mean, read-out: in vitro complex I activity relative to solvent control) was 5.29%. For the same compound, the “in vitro complex I activity relative to solvent control” value ([1]; C. briggsae mitochondria, 0.625 µM, single replicate) was 0.000% and 15.885%, the remaining activity at 1.5 µM ([1]; C. briggsae mitochondria, 1.5 µM, Mean, read-out: in vitro complex I activity relative to solvent control) was 3.62% and the “in vitro complex I activity relative to solvent control” value ([1]; C. briggsae mitochondria, 1.5 µM, single replicate) was 0.000% and 10.874%. For the same compound, the remaining activity at 3 µM ([1]; C. briggsae mitochondria, 3 µM, Mean, read-out: in vitro complex I activity relative to solvent control) was 5.17%, the “in vitro complex I activity relative to solvent control” value ([1]; C. briggsae mitochondria, 3 µM, single replicate) was 0.000% and 15.522% and the remaining activity at 15 µM ([1]; C. briggsae mitochondria, 15 µM, Mean, read-out: in vitro complex I activity relative to solvent control) was 7.49%. The “in vitro complex I activity relative to solvent control” value ([1]; C. briggsae mitochondria, 15 µM, single replicate) was 0.019% and 20.437% and 1.999%, the remaining activity at 37.5 µM ([1]; C. briggsae mitochondria, 37.5 µM, Mean, read-out: in vitro complex I activity relative to solvent control) was 5.41% and the “in vitro complex I activity relative to solvent control” value ([1]; C. briggsae mitochondria, 37.5 µM, single replicate) was 0.000% and 16.226%. For the same compound, the remaining activity at 75 µM ([1]; C. briggsae mitochondria, 75 µM, Mean, read-out: in vitro complex I activity relative to solvent control) was 4.07%, the “in vitro complex I activity relative to solvent control” value ([1]; C. briggsae mitochondria, 75 µM, single replicate) was 3.330% and 6.641% and 2.225% and the IC50 ([1]; purified mitochondria) was 73.7 nM.
CCn1c(C(C)c2ccc(CC(C)C)cc2)nc2ccccc21 (stereo not drawn) [STK951902] was tested, and the “# Mice cured/ # Mice investigated” value ([2]; single oral dose 200 mg/kg, assessed 1 week after dosing) was 0/4, the “% Worm burden reduction” value ([2]; single oral dose 200 mg/kg, vs untreated control mice) was 41.1% and the “Median # of living H. polygyrus worms” value ([2]; single oral dose 200 mg/kg, median (MAD) of adults collected from intestine) was 73.0 (1.5). For the same compound, the “% Worm burden reduction” value ([2]; single oral dose of 200 mg/kg, median worm counts versus control mice) was 41.1290%, the “Live worms in intestine (individual mouse)” value ([2]; single oral dose of 200 mg/kg, worm burden one week after dose, Mouse 1-4, 200 mg/kg) was 73 and 52 and 76 and the “Live worms in intestine, Median (+/- MAD)” value ([2]; single oral dose of 200 mg/kg, worm burden one week after dose, three to four mice) was 73 (1.5).
